Drawing on patent US20230286969A1, “AROMATIC SPIRO RING AMIDE DERIVATIVES FOR THE TREATMENT AND PROPHYLAXIS OF HEPATITIS B VIRUS INFECTION” (Hoffmann-La Roche Inc., priority 2020, published 2023), this text covers IC50 and CC50 for 20 molecules.

Format in all cases: cell-based
The subject of data set [1] is HBsAg. The data set is described as follows: PHH HBV natural infection assay, HBsAg (alphalisa). Here is the method:
(§1) Detailed procedures regarding primary human hepatocyte (PHH) HBV natural infection assay are described as below. One tube of frozen PHH (10 million cells) is thawed in 37° C. water bath and then transferred to 20 mL of PHH thawing medium (Sigma, InVitroGRO HT Medium, Cat. S03319) with gently mixing. The cells were then centrifuged at […] for 5 min, the supernatant was discarded and the tube was refilled with 25 mL of PHH plating medium (Sigma, InVitroGRO CP Medium, Cat. S03317). The tube was shaken very gently to re-suspend all cells, and then 50 μl of cells were transferred to each well 384-well collagen I coated plate with appropriate liquid handling equipment, e.g. Integra VIAFLO384 or Agilent Bravo. The cells were then cultured for 24 hours in a cell incubator. For HBV infection, after PHH attachment on the culture plate, the plating medium was removed and replenished with PHH culture medium containing HBV virus. The PHH culture medium was prepared with Dulbecco's Modified Eagle Medium (DMEM)/F12 (1:1 in volume ratio) containing 10% fetal bovine serum (Gibco, Cat. 10099141), 5 ng/mL human epidermal growth factor (Gibco, Cat.PHG0311L), 20 ng/mL dexamethasone (Sigma, Cat.D4902-100 mg), 250 ng/mL human recombinant insulin (Gibco, Cat.41400045) and 100 U/mL penicillin. HBV virus at 200 genome equivalent (GE) per cell with 4% PEG8000 (Sigma, Cat.P1458) containing culture medium were added to the PHH culture medium for infection. The cells were then cultured for 24 hours in cell incubator. Then the cell culture supernatant was removed. The HBV-infected PHH were cultured with sandwich culture method with PHH culture medium containing 1% DMSO and 0.25 mg/mL matrix gel for 72 hours. The supernatant was then refreshed with PHH culture medium containing different concentrations of testing compounds for two times with 72-hour interval. At the end of treatment, the supernatant was collected for viral markers measurements, including HBsAg, HBeAg, HBV DNA and cytotoxicity. HBsAg and HBeAg were detected using alphalisa method using their specific antibodies. For HBV DNA detection, HBV DNA Quantitative Fluorescence Diagnostic Kit (Sansure Biotech Inc.) was used following the manufacture's protocol. Cytotoxicity was determined using Cell Counting Kit-8 (CCK8, Dojindo Molecular Technologies, Inc.).
(§2) The compounds of the present invention were tested for their capacity to inhibit HBsAg and HBeAg as described herein.
Background: In Alpha technology, singlet oxygen from a donor bead excites a nearby acceptor bead.

A short description of data set [2]: PHH natural infection assay, cytotoxicity (Cell Counting Kit-8). The following applies: human, HBV-infected primary human hepatocytes, CCK8, end of treatment. As to the method:
as §1

The subject of data set [3] is HBeAg. The data set is described as follows: PHH HBV natural infection assay, HBeAg (alphalisa). Here is the method:
as §1, §2

[4] abbreviates: Hepatitis B virus, Hepatocyte, 72 h, read-out: HBsAg IC50, HBV-infected primary human hepatocytes, supernatant, compound medium refreshed two times with 72-hour interval.
Where [5] appears, read: Hepatitis B virus, Hepatocyte, 72 h, read-out: HbeAg IC50, HBV-infected primary human hepatocytes, supernatant, compound medium refreshed two times with 72-hour interval.
[6] abbreviates: read-out: HBsAg IC50, HBV-infected primary human hepatocytes, supernatant, compound medium refreshed two times with 72-hour interval.
Setting [7] is: read-out: HbeAg IC50, HBV-infected primary human hepatocytes, supernatant, compound medium refreshed two times with 72-hour interval.

Read-outs that look alike come from different tables or passages of the source. Bounds are passed on as bounds.

Broadly, the IC50 is the concentration needed to halve the response being measured. As usually defined, the CC50 is the concentration at which the toxic effect on the cells reaches its halfway point. Read a high CC50 as lower toxicity to the cells. Turning to `O=C(NC1CC2(C1)CC(c1nc3cc(Cl)ccc3o1)C2)c1ccc([S+]([O-])CC2CC2)o1` (stereo not drawn) [Example 19, N-[6-(5-chloro-1,3-benzoxazol-2-yl)spiro[3.3]heptan-2-yl]-5-(cyclopropylmethylsulfinyl)furan-2-carboxamide], the IC50 amounted to 0.036 µM in data set [1] (setting [4]) and 0.045 µM in data set [3] (setting [5]). For the same molecule, in data set [2], half-maximal cytotoxicity (CC50 at 144 h) was put at 94.5 µM.

For the molecule `O=C(NC1CC2(C1)CC(c1nc3cc(Cl)ccc3o1)C2)c1ccc(S(=O)(=O)NC(=O)C2CCCC2)o1` (stereo not drawn) [Example 81, N-[6-(5-chloro-1,3-benzoxazol-2-yl)spiro[3.3]heptan-2-yl]-5-(cyclopentanecarbonylsulfamoyl)furan-2-carboxamide], the results for the IC50 in data set [1] (setting [4]) and in data set [3] (setting [5]) were 1.74 µM and 0.796 µM, respectively. This molecule yielded a CC50 at 144 h in data set [2] of 11.3 µM.

Take `COCc1ccc(C(=O)NC2CC3(C2)CC(c2nc4cc(Cl)ccc4o2)C3)o1` (stereo not drawn) [Example 9, N-[6-(5-chloro-1,3-benzoxazol-2-yl)spiro[3.3]heptan-2-yl]-5-(methoxymethyl)furan-2-carboxamide]: the IC50 in data set [1] (setting [4]) was 1.57 µM; in data set [3] (setting [5]), 1.01 µM. For the same molecule, the CC50 at 144 h in data set [2] worked out at 91 µM.

In the case of `CC(=O)NS(=O)(=O)c1ccc(C(=O)NC2CC3(C2)CC(c2nc4cc(Cl)ccc4o2)C3)o1` (stereo not drawn) [Example 80, 5-(acetylsulfamoyl)-N-[6-(5-chloro-1,3-benzoxazol-2-yl)spiro[3.3]heptan-2-yl]furan-2-carboxamide], the IC50 in data set [1] (setting [4]) was determined as 2.77 µM; in data set [3] (setting [5]), 1.8 µM. In addition, in data set [2], the CC50 at 144 h was above 100 µM.

`O=C(NC1CC2(C1)CC(c1nc3cc(Cl)ccc3o1)C2)c1ccc(S(=O)(=O)NC(=O)C2CCOCC2)o1` (stereo not drawn) [Example 87, N-[[5-[[6-(5-chloro-1,3-benzoxazol-2-yl)spiro[3.3]heptan-2-yl]carbamoyl]-2-furyl]sulfonyl]tetrahydropyran-4-carboxamide]: the IC50 in data set [1] (setting [4]) was determined as 1.3 µM; in data set [3] (setting [5]), 0.981 µM. The same molecule gave a CC50 at 144 h in data set [2] above 10 µM.

`CCCC(=O)NS(=O)(=O)c1ccc(C(=O)N[C@H]2CC3(C2)C[C@H](c2nc4cc(Cl)ccc4o2)C3)o1` (stereo partly drawn) [Example 69]: the IC50 came out at 0.329 µM in data set [1] (setting [4]) and 0.223 µM in data set [3] (setting [5]). Also, the CC50 at 144 h in data set [2] is above 100 µM.

Turning to `CC(C)S(=O)(=O)Cc1ccc(C(=O)NC2CC3(C2)CC(c2nc4cc(Cl)ccc4o2)C3)o1` (stereo not drawn) [Example 44, N-[6-(5-chloro-1,3-benzoxazol-2-yl)spiro[3.3]heptan-2-yl]-5-(isopropylsulfonylmethyl)furan-2-carboxamide], the IC50 in data set [1] (setting [4]) is 1.8 µM; in data set [3] (setting [5]), 1.55 µM. In data set [2], half-maximal cytotoxicity (CC50 at 144 h) was put at 95.8 µM.

For the molecule `CS(=N)(=O)c1ccc(C(=O)NC2CC3(C2)CC(c2nc4cc(Cl)cnc4o2)C3)o1` (stereo not drawn) [Example 63, N-[6-(6-chlorooxazolo[5,4-b]pyridin-2-yl)spiro[3.3]heptan-2-yl]-5-(methylsulfonimidoyl)furan-2-carboxamide], the results for the IC50 in data set [1] (setting [4]) and in data set [3] (setting [5]) were 6.69 µM and 4.94 µM, respectively. This molecule returned a CC50 at 144 h in data set [2] above 100 µM.

As to `NS(=O)(=O)NCc1ccc(C(=O)NC2CC3(C2)CC(c2nc4cc(Cl)ccc4o2)C3)o1` (stereo not drawn) [Example 35, N-[6-(5-chloro-1,3-benzoxazol-2-yl)spiro[3.3]heptan-2-yl]-5-[(sulfamoylamino)methyl]furan-2-carboxamide], the IC50 in data set [1] (setting [4]) is 7.81 µM; in data set [3] (setting [5]), 6.53 µM. This molecule also came in with a CC50 at 144 h in data set [2] of 98.3 µM.

Turning to `N=S(=O)(c1ccc(C(=O)NC2CC3(C2)CC(c2nc4cc(Cl)cnc4o2)C3)o1)C1CC1` (single isomer, unassigned) [Example 64-a, N-[6-(6-chlorooxazolo[5,4-b]pyridin-2-yl)spiro[3.3]heptan-2-yl]-5-(cyclopropylsulfonimidoyl)furan-2-carboxamide], the IC50 was found to be 8.45 µM in data set [1] (setting [6]) and 4.81 µM in data set [3] (setting [7]). Also, the CC50 at 144 h in data set [2] is above 10 µM.

As for `NC(=O)c1ccc(C(=O)NC2CC3(C2)CC(c2nc4cc(Cl)ccc4o2)C3)o1` (stereo not drawn) [Example 11, N2-[6-(5-Chloro-1,3-benzoxazol-2-yl)spiro[3.3]heptan-2-yl]furan-2,5-dicarboxamide], the IC50 in data set [1] (setting [4]) is 5.88 µM; in data set [3] (setting [5]), 5.22 µM. Further, the CC50 at 144 h in data set [2] was above 10 µM.

`N=S(=O)(c1ccc(C(=O)NC2CC3(C2)CC(c2nc4cc(Cl)cnc4o2)C3)o1)C1CC1` (stereo not drawn) [Example 64, N-[6-(6-chlorooxazolo[5,4-b]pyridin-2-yl)spiro[3.3]heptan-2-yl]-5-(cyclopropylsulfonimidoyl)furan-2-carboxamide]: the IC50 in data set [1] (setting [4]) is 2.93 µM; in data set [3] (setting [5]) it was 2.33 µM. The same molecule registered a CC50 at 144 h in data set [2] above 100 µM.

Consider `[H][C@]1(NC(=O)c2ccc([S@](C)(=N)=O)o2)C[C@]2(C1)C[C@]([H])(c1nc3cc(Cl)ccc3o1)C2` (stereo partly drawn) [Example 52-d, (Ra)—N-[6-(5-chloro-1,3-benzoxazol-2-yl)spiro[3.3]heptan-2-yl]-5-[(R)-methylsulfonimidoyl]furan-2-carboxamide], for which the figures for the IC50 in data set [1] (setting [4]) and in data set [3] (setting [5]) were 0.966 µM and 0.876 µM, respectively. The CC50 at 144 h in data set [2] was above 100 µM.

As to `C[S+]([O-])c1ccc(C(=O)NC2CC3(C2)CC(c2nc4cc(Cl)ccc4o2)C3)o1` (stereo not drawn) [Example 14, N-[6-(5-chloro-1,3-benzoxazol-2-yl)spiro[3.3]heptan-2-yl]-5-methylsulfinyl-furan-2-carboxamide], the IC50 in data set [1] (setting [4]) was 1.61 µM; in data set [3] (setting [5]), 0.854 µM. Besides, the CC50 at 144 h in data set [2] was found to be 76.5 µM.

In the case of `CC(C)(C)[S+]([O-])c1ccc(C(=O)NC2CC3(C2)CC(c2nc4cc(Cl)ccc4o2)C3)o1` (stereo not drawn) [Example 38, 5-tert-butylsulfinyl-N-[6-(5-chloro-1,3-benzoxazol-2-yl)spiro[3.3]heptan-2-yl]furan-2-carboxamide], the IC50 in data set [1] (setting [4]) is 0.526 µM; in data set [3] (setting [5]), 0.317 µM. Moreover, in data set [2], the CC50 at 144 h was found to be 96.3 µM.

Take `CS(=N)(=O)c1ccc(C(=O)NC2CC3(C2)CC(c2nc4cc(Cl)ccc4o2)C3)o1` (single isomer, unassigned) [Example 52-a, N-[6-(5-chloro-1,3-benzoxazol-2-yl)spiro[3.3]heptan-2-yl]-5-(methylsulfonimidoyl)furan-2-carboxamide]: the IC50 in data set [1] (setting [6]) stood at 4.26 µM; in data set [3] (setting [7]), 1.77 µM. The same molecule came in with a CC50 at 144 h in data set [2] above 100 µM.

With `CS(=O)(=O)c1ccc(C(=O)NC2CC3(C2)CC(c2nc4cc(Cl)ccc4o2)C3)s1` (stereo not drawn) [Example 45, N-[6-(5-chloro-1,3-benzoxazol-2-yl)spiro[3.3]heptan-2-yl]-5-methylsulfonyl-thiophene-2-carboxamide], the IC50 in data set [1] (setting [4]) stood at 2.21 µM; in data set [3] (setting [5]) it was 1.9 µM. The molecule further gave a CC50 at 144 h in data set [2] above 100 µM.

Regarding `CCS(=O)(=O)c1cc(C)c(C(=O)NC2CC3(C2)CC(c2nc4cc(Cl)ccc4o2)C3)o1` (stereo not drawn) [Example 37, N-[6-(5-chloro-1,3-benzoxazol-2-yl)spiro[3.3]heptan-2-yl]-5-ethylsulfonyl-3-methyl-furan-2-carboxamide], the IC50 in data set [1] (setting [4]) came to 9.38 µM; in data set [3] (setting [5]), 5.72 µM. Moreover, in data set [2], the CC50 at 144 h was above 100 µM.

Consider `O=C(NC1CC2(C1)CC(c1nc3cc(Cl)ccc3o1)C2)c1ccc(Cl)o1` (stereo not drawn) [Example 6, 5-chloro-N-[6-(5-chloro-1,3-benzoxazol-2-yl)spiro[3.3]heptan-2-yl]furan-2-carboxamide], for which the results for the IC50 in data set [1] (setting [4]) and in data set [3] (setting [5]) were 2.77 µM and 2.08 µM, respectively. Besides, the CC50 at 144 h in data set [2] is above 100 µM.

On to `O=C(N[C@H]1CC2(C1)C[C@H](c1nc3cc(Cl)ccc3o1)C2)c1ccc(S(=O)(=O)NC(=O)C23CC(C2)C3)o1` (single isomer, unassigned) [Example 76, (Sa)-5-(bicyclo[1.1.1]pentane-1-carbonylsulfamoyl)-N-[6-(5-chloro-1,3-benzoxazol-2-yl)spiro[3.3]heptan-2-yl]furan-2-carboxamide, or (Ra)-5-(bicyclo[1.1.1]pentane-1-carbonylsulfamoyl)-N-[6-(5-chloro-1,3-benzoxazol-2-yl)spiro[3.3]heptan-2-yl]furan-2-carboxamide], for which the figures for the IC50 in data set [1] (setting [4]) and in data set [3] (setting [5]) were 2.84 µM and 1.99 µM, respectively. The 50% cytotoxic concentration (CC50) at 144 h in data set [2] is above 10 µM.
